# According to patent publication US9328173B2, “Multifunctional antibodies binding to EGFR and MET” (Eli Lilly and Company, priority 2013, dated 2016):
# Read-outs that look alike come from different tables or passages of the source.
# B1: EM1-mAb: bispecific antibody targeting both EGFR and cMET made by controlled Fab Arm Exchange (antibody, chains of the INN, looked up, V domains shown)
# VH: QVQLVESGGGVVQPGRSLRLSCAASGFTFSTYGMHWVRQAPGKGLEWVAVIWDDGSYKYYGDSVKGRFTISRDNSKNTLYLQMNSLRAEDTAVYYCARDGITMVRGVMKDYFDYWGQGTLVTVSS
# VL: AIQLTQSPSSLSASVGDRVTITCRASQDISSALVWYQQKPGKAPKLLIYDASSLESGVPSRFSGSESGTDFTLTISSLQPEDFATYYCQQFNSYPLTFGGGTKVEIK
# VH2: QVQLVQSGAEVKKPGASVKVSCETSGYTFTSYGISWVRQAPGHGLEWMGWISAYNGYTNYAQKLQGRVTMTTDTSTSTAYMELRSLRSDDTAVYYCARDLRGTNYFDYWGQGTLVTVSS
# VL2: DIQMTQSPSSVSASVGDRVTITCRASQGISNWLAWFQHKPGKAPKLLIYAASSLLSGVPSRFSGSGSGTDFTLTISSLQPEDFATYYCQQANSFPITFGQGTRLEIK
# How the values were obtained:
# FaDu cells = experiment: Restoring FaDu sensitivity to lapatinib in the presence of HGF or EGF; format: cell-based; conditions: Homo sapiens, antibodies 50 nM, read-out: % of cell viability; for viability at 0.001 µM: lapatinib 0.001 μM; for viability at 0.003 µM: lapatinib 0.003 μM; for viability at 0.01 µM: lapatinib 0.01 μM; for viability at 0.03 µM: lapatinib 0.03 μM; for viability at 0.1 µM: lapatinib 0.1 μM; for viability at 0.3 µM: lapatinib 0.3 μM; for viability at 1 µM: lapatinib 1 μM; for viability at 3 µM: lapatinib 3 μM; for viability at 10 µM: lapatinib 10 μM
# Method: (§1) Briefly, 3×10^3 cells/well in 100 μL culture medium may be plated in 96 well plates and incubated overnight at 37° C., 5% CO2. […] At the end of an additional 5 days of cell growth, plates may be equilibrated to room temperature for 30 minutes and 100 μL per well of CellTiter-Glo® reagent (Promega Corp.) may be added. Cell viability can be determined by measuring luminescence.
# HT-29 cells = experiment: Restoring HT-29 sensitivity to PLX4032 in the presence of HGF and EGF; format: cell-based; conditions: Homo sapiens, HT-29, 120 h; read-out: AVG = average % of cell viability
# Method: as §1, with “The colon cancer cell line HT-29 has a B-Raf mutation and is sensitive to the B-Raf inhibitor PLX4032. […] Briefly,” for “Briefly,”
# HCC827 cells = experiment: Restoring HCC827 sensitivity to erlotinib in the presence of HGF; conditions: Homo sapiens, HCC827, 72 h, read-out: AVG = average % of cell viability
# Method: Briefly, 3×10^3 cells/well in 100 μL culture medium may be plated in 96 well plates and incubated overnight at 37° C., 5% CO2. […] Cell viability may be determined by measuring luminescence.
# MKN45 cells = experiment: MKN45 apoptosis assay (caspase-3/7 positive cells, […]); format: cell-based, human; conditions: antibody 100 nM, untreated = 100.00
# Method: The gastric cancer cell line MKN45 can be used to assay apoptosis induced by antibodies. Briefly, 3×10^3 cells/well in 80 μL culture medium may be plated in 96 well plates and incubated overnight at 37° C., 5% CO2. CellEvent™ reagent (Life Technologies, Carlsbad, Calif.) may be diluted in cell culture medium and added at 10 μL per well. […] The caspase-3/7 positive cells may be measured in real-time by […]™ Kinetic Imaging System (Essen Bioscience, Ann Arbor, Mich.) with 3 hours intervals at 37° C., 5% CO2 for a total of 120 hours.
# ERK phosphorylation = conditions: in vitro ERK phosphorylation assay; cited from earlier work
molecule,measurement,setting,value
CS(=O)(=O)CCNCc1ccc(-c2ccc3ncnc(Nc4ccc(OCc5cccc(F)c5)c(Cl)c4)c3c2)o1 [lapatinib],viability at 0.001 µM,FaDu cells; E = EGF (50 ng/ml),109%
same,viability at 0.001 µM,FaDu cells; H = HGF (50 ng/ml),99.5%
same,viability at 0.003 µM,FaDu cells; E = EGF (50 ng/ml),109%
same,viability at 0.003 µM,FaDu cells; H = HGF (50 ng/ml),101%
same,viability at 0.01 µM,FaDu cells; E = EGF (50 ng/ml),78.7%
same,viability at 0.01 µM,FaDu cells; H = HGF (50 ng/ml),95.8%
same,viability at 0.03 µM,FaDu cells; E = EGF (50 ng/ml),69.4%
same,viability at 0.03 µM,FaDu cells; H = HGF (50 ng/ml),68.8%
same,viability at 0.1 µM,FaDu cells; E = EGF (50 ng/ml),45.6%
same,viability at 0.1 µM,FaDu cells; H = HGF (50 ng/ml),45.4%
same,viability at 0.3 µM,FaDu cells; E = EGF (50 ng/ml),32.5%
same,viability at 0.3 µM,FaDu cells; H = HGF (50 ng/ml),32.5%
same,viability at 1 µM,FaDu cells; E = EGF (50 ng/ml),26.3%
same,viability at 1 µM,FaDu cells; H = HGF (50 ng/ml),26.9%
same,viability at 3 µM,FaDu cells; E = EGF (50 ng/ml),19%
same,viability at 3 µM,FaDu cells; H = HGF (50 ng/ml),18.5%
same,viability at 10 µM,FaDu cells; E = EGF (50 ng/ml),19.6%
same,viability at 10 µM,FaDu cells; H = HGF (50 ng/ml),17.1%
"CCCS(=O)(=O)Nc1ccc(F)c(C(=O)c2c[nH]c3ncc(-c4ccc(Cl)cc4)cc23)c1F [PLX, PLX4032]",viability at 0.00032 µM,HT-29 cells,101%
same,viability at 0.0016 µM,HT-29 cells,99.9%
same,viability at 0.008 µM,HT-29 cells,97.6%
same,viability at 0.04 µM,HT-29 cells,83.1%
same,viability at 0.2 µM,HT-29 cells,56.7%
same,viability at 1 µM,HT-29 cells,33.7%
"C#Cc1cccc(Nc2ncnc3cc(OCCOC)c(OCCOC)cc23)c1 [Erlotinib, erlotinib]",viability at 1 µM,HCC827 cells,18%
"anti-MET Ab: parental anti-MET antibody C8-H241 (human IgG4 subtype), described in WO 2010/059654 [reference compound]",AVG = average % increase of cell apoptosis,MKN45 cells; 24 hr,100.35%
same,AVG = average % increase of cell apoptosis,MKN45 cells; 48 hr,222.81%
same,AVG = average % increase of cell apoptosis,MKN45 cells; 72 hr,275.40%
same,AVG = average % increase of cell apoptosis,MKN45 cells; 96 hr,286.63%
same,AVG = average % increase of cell apoptosis,MKN45 cells; 120 hr,353.84%
B1,activity compared to the combination of monovalent control antibodies,ERK phosphorylation,superior activity
